# Reference: US8455528B2, “Imidazole derivatives useful as inhibitors of FAAH” (Merck Sharp & Dohme Corp., priority 2008, dated 2013)
# Target: T1, Human FAAH (Homo sapiens, UniProt O00519)
# T1 construct: The full length FAAH was subcloned into the mammalian expression vector, pcDEF.neo; expressed in transfected cells
# T1 sequence (O00519 1-579): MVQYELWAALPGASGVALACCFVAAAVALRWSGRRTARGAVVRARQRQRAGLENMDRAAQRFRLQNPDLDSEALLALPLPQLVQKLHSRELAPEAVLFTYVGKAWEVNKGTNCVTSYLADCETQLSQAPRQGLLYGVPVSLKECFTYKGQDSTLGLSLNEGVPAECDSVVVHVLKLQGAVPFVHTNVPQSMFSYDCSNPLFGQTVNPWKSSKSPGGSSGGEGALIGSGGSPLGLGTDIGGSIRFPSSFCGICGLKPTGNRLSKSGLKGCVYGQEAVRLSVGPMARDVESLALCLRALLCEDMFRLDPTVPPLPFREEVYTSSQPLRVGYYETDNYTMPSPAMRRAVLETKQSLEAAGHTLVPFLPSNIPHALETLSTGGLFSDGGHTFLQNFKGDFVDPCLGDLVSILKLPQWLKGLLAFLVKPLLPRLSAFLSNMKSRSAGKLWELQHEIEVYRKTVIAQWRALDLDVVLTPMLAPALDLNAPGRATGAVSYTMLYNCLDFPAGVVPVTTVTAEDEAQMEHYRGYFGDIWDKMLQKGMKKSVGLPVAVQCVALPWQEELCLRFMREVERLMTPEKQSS
# Experiment: Human FAAH whole cell assay (FAAH_CHO cells)
# Assay type: cell-based
# Details: FAAH inhibition, whole CHO cells expressing human FAAH
# From the text: To assist in assay development stable cell lines for human, murine and rat full length FAAH were developed. Human FAAH cDNA (Accession No: NM_001441.1) was purchased from Origene (Rockville, Md.). The full length FAAH was subcloned into the mammalian expression vector, pcDEF.neo, using XbaI and EcoRI restriction sites and used for stable cell line generation.
# Murine (accession number NM_010173) and Rat FAAH (accession number NM_024132) was amplified by reverse transcriptase polymerase chain reaction (RT-PCR) from brain cDNA (BD Biosciences, San Jose, Calif.) using primers 1 and 2 or primers 1 and 3 respectively (see Table). The resulting PCR product was ligated into pCR4 TOPO and DNA sequence confirmed. The full length murine FAAH was subcloned into the mammalian expression vector, pcDEFneo using either EcoRI (murine) or KpnI and EcoRI (rat) restriction sites. Chinese hamster ovary cells (CHO) were transfected following manufacturers protocol (AMAXA). Forty eight hours post transfection, cells were trypsinized and transferred to 96 well plates in Iscove's DMEM media supplemented with 2 mM Glutamine, 10% fetal calf serum, 1 mg/ml geneticin and HT Supplement (0.1 mM sodium hypoxanthine, 0.016 mM thymidine) in order to isolate single clones. Following selection in geneticin, individual clones were selected and FAAH activity was assessed using a whole cell fluorescent anandamide assay, modified from Ramarao et al (2005). Following removal of tissue culture media cells were dislodged following addition of Cellstripper (Mediatech, Inc. Manassas, Va.) and transferred to 96 well black clear bottom assay plate, centrifuged at 1,000 rpm for 3 mins and media removed and replaced with assay buffer (50 mM Tris pH8.0, 1 mM EDTA, 0.1% fatty acid free BSA). The reaction was initiated by addition of fluorescent substrate, AMC Arachidonoyl Amide (Cayman Chemical, Ann Arbor, Mich.) to 1 μM and reaction allowed to proceed for 2 hours at room temperature. Release of fluorescence was monitored in a CytoFluor Multiplate Reader. Cells expressing the highest amount of FAAH activity were selected for study with FAAH inhibitors.
# (American Radiolabeled Chemicals; 1 mCi/ml) with FAAH (Life Sciences (1995), 56, 1999-2005 and Journal of Pharmacology and Experimented Therapeutics (1997), 283, 729-734), Analytical. Biochemistry (2003), 318, 270-5. In addition, routine assays were performed monitoring hydrolysis of arachidonyl-7-amino-4-methylcoumarin amide (AAMCA) by following increase in fluorescence upon release of 7-amino 4-methyl coumarin (λEX=355 nm, (λEM=460 nm). Analytical. Biochemistry (2005). 343, 143-51
# Assays are performed on either cell lysate or microsome fractions prepared as described or in whole cell format employing either the fluorescent substrate AAMCA (Cayman chemical, Ann Arbor, Mich.) or ^3H-anandmaide ([ETHANOLAMINE-1-3H] American Radiolabeled Chemicals; 1 mCi/ml). The cell lysate or microsome assay is performed in Costar black wall, clear bottom plates by adding FAAH_CHO (whole cell, cell lysate or microsome) in assay buffer (50 mM Phosphate, pH 8.0, 1 mM EDTA, 200 mM KCl, 0.2% glycerol, 0.1% fatty acid free BSA) to each well, followed by either DMSO or compound and allowed to incubate at 22-25° C. for fifteen minutes. AAMCA substrate was used to achieve a final concentration of 1 μM and reaction allowed to proceed at room temperature for 1-3 hours. Fluorescent release as a measure of FAAH activity was monitored by reading the plate in a CytoFluor Multiplate Reader ([…]). Whole cell assay is conducted with cells harvested after rinsing tissue culture flasks three times with Ca^++Mg^++ free PBS, incubating for 10 min in Enzyme free dissociation media and centrifuging for 5 minutes at 1,000 rpm in table top centrifuge. Cells are resuspended in assay buffer at desired cell number in (4×10^4 cells/assay in 96-well format; 1×10^4 cells/assay in 384-well format) and assayed as described.
row,SMILES,IC50 [nM]
1,"Cn1cnc(-c2ccc(C#N)cc2)c1Sc1ccc(Cl)cc1 [Ex 33, 4-{5-[(4-chlorophenyl)thio]-1-methyl-1H-imidazol-4-yl}benzonitrile]",2980
2,"Cn1c(-c2ccccn2)nc(-c2ccc(N)cc2)c1Sc1ccc(Cl)cc1 [Ex 98, 4-{5-[(4-Chlorophenyl)thio]-1-methyl-2-pyridin-2-yl-1H-imidazol-4-yl}aniline]",1000
3,"Cn1c(-c2ccccc2)nc(-c2ccc(C#N)cc2)c1Sc1ccc(Cl)cc1 [Ex 2, 4-{5-[(4-Chlorophenyl)thio]-1-methyl-2-phenyl-1H-imidazol-4-yl}benzonitrile]",84.8
4,"CC(C)c1nc(-c2ccc(S(C)(=O)=O)cc2)c(Sc2ccc(Cl)cc2)n1C [Ex 29, 5-[(4-Chlorophenyl)thio]-2-isopropyl-1-methyl-4-[4-(methylsulfonyl)phenyl]-1H-imidazole]",480
5,CS(=O)(=O)c1ccc(-c2nc(C3CCC3)[nH]c2Sc2ccc(Cl)cc2)cc1 [Ex 13],3000
6,Cn1c(C2CCC2)nc(-c2ccc(S(C)(=O)=O)cc2)c1Sc1ccc(Cl)cc1 [Ex 14],107
7,Cn1c(-c2ccccn2)nc(-c2ccc(-n3ccnn3)cc2)c1Sc1ccc(Cl)cc1 [Ex 66],52.2
8,"Cn1c(-c2ccccn2)nc(-c2ccc(C(O)C(F)F)cc2)c1Sc1ccc(Cl)cc1 (stereo not drawn) [Ex 57, 1-(4-{5-[(4-Chlorophenyl)thio]-1-methyl-2-pyridin-2-yl-1H-imidazol-4-yl}phenyl)-2,2-difluoroethanol]",67.8
9,"Cn1c(-c2ccccn2)nc(-c2ccc(-c3nnco3)cc2)c1Sc1ccc(Cl)cn1 [Ex 36, 5-Chloro-2-({1-methyl-4-[4-(1,3,4-oxadiazol-2-yl)phenyl]-2-pyridin-2-yl-1H-imidazol-5-yl}thio)pyridine]",48.6
